The results in this text go back to patent US20230416679A1, “METHODS AND COMPOSITIONS FOR IN-VITRO AUGMENTATION OF MILK PRODUCTION FROM MAMMARY EPITHELIAL CELLS” (Wilk Technologies International Ltd., priority 2021, published 2023).

Structures are written as SMILES.

The experiment relates to primary culture of bovine mammary epithelial cells. Nature of the experiment: Triglyceride / fat secreted to the medium by mammary epithelial cells (Nile red staining, HPLC-ELSD). The class given is cell-based. The source says: For all the experiments, primary culture of bovine mammary epithelial cells were used. The cells were isolated from 3 lactating Holstein cows according to an established protocol (Cohen et al., 2015 supra). Study protocols were in compliance with the regulations of the Israeli Ministry of Health, under the supervision of the Department for Control of Animal Products, State of Israel Ministry of Agriculture Rural Development Veterinary Services and Animal Health. Certificate Nu: #80. After isolation, 60,000 cells were plated in a 35-mm plastic dish on glass cover slips for all florescence staining experiments. For production analysis, 150,000 cells were plated in a 60-mm plastic dish for lipids, protein, and lactose extraction. […] After 24 h of incubation, medium was collected for triglyceride and phospholipid quantification, and cells were harvested for cell counting, lipid, lactose or protein extraction. […]
After treatment, total lipids were extracted from harvested cells and from collected medium. […] Quantification was performed against external standard curves and expressed as μg/per 10^6 live cells or as weight % out of the sum of phospholipids (μg) in the sample. Live cell number was determined with a hemocytometer after 5 min of trypan blue staining. […]

As for `O=c1c(O)c(-c2cc(O)c(O)c(O)c2)oc2cc(O)cc(O)c12` [myricetin, Myricetin], the triglyceride secretion entry was “can increase”.
